Experimental findings from ChEMBL document CHEMBL1146633, “Synthesis and antimalarial evaluation of new 1,4-bis(3-aminopropyl)piperazine derivatives” (Bioorg Med Chem Lett, 2003) are described below.

The test system of assay [1] is MRC5. The assay is described as follows: Relative inhibitory activity to cytotoxicity as selectivity index (CC50/IC50). It is filed as functional.
Assay [2] addresses T1, Histidine-rich protein PFHRP-II (Plasmodium falciparum) (UniProt P05227).
T1 sequence (whole entry): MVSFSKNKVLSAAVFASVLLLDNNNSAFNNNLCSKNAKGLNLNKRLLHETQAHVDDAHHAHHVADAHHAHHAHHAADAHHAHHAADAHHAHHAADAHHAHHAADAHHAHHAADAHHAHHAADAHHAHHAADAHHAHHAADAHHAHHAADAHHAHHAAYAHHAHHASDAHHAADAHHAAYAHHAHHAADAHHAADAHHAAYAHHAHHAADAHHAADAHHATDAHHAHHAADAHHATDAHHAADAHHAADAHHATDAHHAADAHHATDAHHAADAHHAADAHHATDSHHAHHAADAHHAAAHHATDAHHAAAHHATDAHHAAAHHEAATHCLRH
Nature of the assay: Vacuolar accumulation ratio (VAR) on beta-hematin inhibitory activity. It is filed as functional.

Assay [3] has as its system MRC5. The assay is described as follows: Cytotoxicity against human diploid embryonic lung cell line (MRC5 cells) using the colorimetric MTT assay. Type of assay: functional. In general terms: Formazan colour is commonly taken as a measure of viable cells.
The test system of another assay is Plasmodium falciparum. Nature of the assay: Antimalarial activity against chloroquine-resistant Plasmodium falciparum FcB1. Type of assay: functional, organism-based.
For assay [4], the target named is T1, Histidine-rich protein PFHRP-II (Plasmodium falciparum). The assay is described as follows: Inhibition of 1-monooleoyl glycerol (MOG) induced beta-hematin formation at 200 uM. It is filed as functional.

By CC50 is commonly meant the concentration at which the toxic effect on the cells reaches its halfway point. A lower CC50 goes with harm at low concentration. Usually IC50 stands for the point on the concentration scale where inhibition reaches its midpoint. For `CC(C)CN(CCCN1CCN(CCCNc2nc3ccccc3o2)CC1)CC(C)C`, in the assay with MRC5 [1], the Selectivity index is listed as greater than 75. Besides, the VAR in assay [2] stood at 298000. The molecule further showed a CC50 in the assay on MRC5 [3] greater than 100 µM. For the same molecule, in the assay on Plasmodium falciparum, the IC50 was 1.33 µM.
For `CC(C)CN(CCCN1CCN(CCCNCc2ccccc2)CC1)CC(C)C`, in that order: 46, 476000, 21 µM and 0.454 µM.
The molecule `CC(C)CN(CCCN1CCN(CCCNc2ccnc3ccccc23)CC1)CC(C)C` returned a Selectivity index in the assay with MRC5 [1] of 1587. In assay [2], the VAR came to 882000. In the assay with MRC5 [3], half-maximal cytotoxicity (CC50) was put at 30 µM. Moreover, the IC50 with Plasmodium falciparum turned out to be 0.0189 µM.
On to `CC(C)CN(CCCN1CCN(CCCNCc2ccc(Cl)cc2)CC1)CC(C)C`, for which, in assay [2], the VAR turned out to be 475000. In the assay with MRC5 [3], half-maximal cytotoxicity (CC50) was put at 13 µM. For the same molecule, inhibition in the assay on Plasmodium falciparum was half-maximal at 0.0406 µM (IC50).
The molecule `CC(C)CN(CCCN1CCN(CCCNCc2ccncc2)CC1)CC(C)C` displayed a Selectivity index in the assay on MRC5 [1] of 36. In addition, in assay [2], the VAR came out at 504000. The CC50 with MRC5 [3] came out at 30 µM. In the assay on Plasmodium falciparum, this molecule yielded an IC50 of 0.842 µM.
In general, inhibition refers to the share of the control response that was lost under treatment. In the case of `CC(C)CN(CCCN1CCN(CCCNC(=O)c2ccncc2)CC1)CC(C)C`, the Selectivity index in the assay on MRC5 [1] is reported as 65. For the same molecule, the inhibition in assay [4] was found to be 0%. In assay [2], the VAR is 3200. In the assay with MRC5 [3], the CC50 is greater than 100 µM. Further, the IC50 in the assay on Plasmodium falciparum turned out to be 1.55 µM.
As to `COc1ccc(C(=O)NCCCN2CCN(CCCN(CC(C)C)CC(C)C)CC2)cc1`, the VAR in assay [2] was 3100. The same molecule registered a CC50 with MRC5 [3] of 57.7 µM. The molecule also returned an IC50 with Plasmodium falciparum of 4.43 µM.
`CC(C)CN(CCCN1CCN(CCCNc2nc3ccccc3[nH]2)CC1)CC(C)C` displayed a Selectivity index in the assay on MRC5 [1] of 183. Further, in assay [2], the VAR is 388000. The same molecule registered a half-maximal cytotoxic concentration (CC50) with MRC5 [3] of 16 µM. 0.0873 µM corresponded to half-maximal inhibition with Plasmodium falciparum (IC50).
With `CC(C)CN(CCCN1CCN(CCCNc2[nH]cnc3ncnc2-3)CC1)CC(C)C`, in the assay with MRC5 [1], the Selectivity index was 67. Also, the inhibition in assay [4] came to 53%. In assay [2], the VAR turned out to be 6200. The same molecule came in with a CC50 in the assay with MRC5 [3] of 82 µM. The molecule further gave an IC50 with Plasmodium falciparum of 1.23 µM.
In the same order, the values of `CC(C)CN(CCCN1CCN(CCCNC(=O)c2ccc3ccccc3c2)CC1)CC(C)C` are greater than 65, 54%, 3300, 44 µM and 0.672 µM.
As for `CC(C)CN(CCCN1CCN(CCCNc2cnccn2)CC1)CC(C)C`, the Selectivity index in the assay with MRC5 [1] is recorded as 151. In assay [2], the VAR was 3600. The molecule also returned a CC50 in the assay on MRC5 [3] of 80 µM. The molecule further yielded an IC50 in the assay on Plasmodium falciparum of 0.531 µM.
With `COc1ccc(CNCCCN2CCN(CCCN(CC(C)C)CC(C)C)CC2)cc1`, in assay [2], the VAR came out at 476000. In the assay with MRC5 [3], this molecule displayed a CC50 of 12 µM. Also, half-maximal inhibition in the assay with Plasmodium falciparum (IC50) was put at 0.111 µM.
Regarding `CC(C)CN(CCCN1CCN(CCCNc2ccnc3cc(Cl)ccc23)CC1)CC(C)C`, the VAR in assay [2] was determined as 597000.
`CCN(CC)CCCC(C)Nc1ccnc2cc(Cl)ccc12` (stereo unspecified) [CHLOROQUINE]: the VAR in assay [2] was 5310. The cytotoxic concentration (CC50) in the assay with MRC5 [3] worked out at 50 µM.
The molecule `CC(C)CN(CCCN1CCN(CCCNc2ccc([N+](=O)[O-])cn2)CC1)CC(C)C` returned a Selectivity index in the assay on MRC5 [1] of 65. Besides, in assay [4], the inhibition amounted to 53%. Besides, the VAR in assay [2] is 3800. Moreover, the CC50 with MRC5 [3] amounted to 49 µM. In the assay with Plasmodium falciparum, this molecule showed an IC50 of 0.758 µM.
In turn, `CC(C)CN(CCCN1CCN(CCCNCc2ccc3ccccc3c2)CC1)CC(C)C` yielded a Selectivity index with MRC5 [1] of 54. The molecule also had an inhibition in assay [4] of 98%. Further, the VAR in assay [2] stood at 475000. For the same molecule, the midpoint of cytotoxicity in the assay with MRC5 [3], the CC50, lay at 6.5 µM. The same molecule gave an IC50 with Plasmodium falciparum of 0.121 µM.
In the case of `CC(C)CN(CCCN1CCN(CCCNC(=O)c2ccc(Cl)cc2)CC1)CC(C)C`, the Selectivity index in the assay with MRC5 [1] is recorded as 18. Besides, in assay [4], the inhibition is 0%. Further, the VAR in assay [2] is 3400. This molecule also had a CC50 with MRC5 [3] of 93 µM. In addition, the IC50 with Plasmodium falciparum stood at 5.27 µM.
